Laboratory results reported in US7005432B2, “Substituted imidazol-pyridazine derivatives” (Hoffman-La Roche Inc., priority 2002, dated 2006).
Structures can show the parent of a compound that is named as a salt.

Target: T1, NMDA-receptor subtype 2B (Rattus norvegicus, UniProt P35439+Q00960)
T1 construct: Membranes were prepared by homogenization of the whole brain minus cerebellum and medulla oblongata; from tissue; host or cells: rat whole brain minus cerebellum and medulla oblongata (membranes)
T1 sequence (Q00960 27-1482, other chains not shown): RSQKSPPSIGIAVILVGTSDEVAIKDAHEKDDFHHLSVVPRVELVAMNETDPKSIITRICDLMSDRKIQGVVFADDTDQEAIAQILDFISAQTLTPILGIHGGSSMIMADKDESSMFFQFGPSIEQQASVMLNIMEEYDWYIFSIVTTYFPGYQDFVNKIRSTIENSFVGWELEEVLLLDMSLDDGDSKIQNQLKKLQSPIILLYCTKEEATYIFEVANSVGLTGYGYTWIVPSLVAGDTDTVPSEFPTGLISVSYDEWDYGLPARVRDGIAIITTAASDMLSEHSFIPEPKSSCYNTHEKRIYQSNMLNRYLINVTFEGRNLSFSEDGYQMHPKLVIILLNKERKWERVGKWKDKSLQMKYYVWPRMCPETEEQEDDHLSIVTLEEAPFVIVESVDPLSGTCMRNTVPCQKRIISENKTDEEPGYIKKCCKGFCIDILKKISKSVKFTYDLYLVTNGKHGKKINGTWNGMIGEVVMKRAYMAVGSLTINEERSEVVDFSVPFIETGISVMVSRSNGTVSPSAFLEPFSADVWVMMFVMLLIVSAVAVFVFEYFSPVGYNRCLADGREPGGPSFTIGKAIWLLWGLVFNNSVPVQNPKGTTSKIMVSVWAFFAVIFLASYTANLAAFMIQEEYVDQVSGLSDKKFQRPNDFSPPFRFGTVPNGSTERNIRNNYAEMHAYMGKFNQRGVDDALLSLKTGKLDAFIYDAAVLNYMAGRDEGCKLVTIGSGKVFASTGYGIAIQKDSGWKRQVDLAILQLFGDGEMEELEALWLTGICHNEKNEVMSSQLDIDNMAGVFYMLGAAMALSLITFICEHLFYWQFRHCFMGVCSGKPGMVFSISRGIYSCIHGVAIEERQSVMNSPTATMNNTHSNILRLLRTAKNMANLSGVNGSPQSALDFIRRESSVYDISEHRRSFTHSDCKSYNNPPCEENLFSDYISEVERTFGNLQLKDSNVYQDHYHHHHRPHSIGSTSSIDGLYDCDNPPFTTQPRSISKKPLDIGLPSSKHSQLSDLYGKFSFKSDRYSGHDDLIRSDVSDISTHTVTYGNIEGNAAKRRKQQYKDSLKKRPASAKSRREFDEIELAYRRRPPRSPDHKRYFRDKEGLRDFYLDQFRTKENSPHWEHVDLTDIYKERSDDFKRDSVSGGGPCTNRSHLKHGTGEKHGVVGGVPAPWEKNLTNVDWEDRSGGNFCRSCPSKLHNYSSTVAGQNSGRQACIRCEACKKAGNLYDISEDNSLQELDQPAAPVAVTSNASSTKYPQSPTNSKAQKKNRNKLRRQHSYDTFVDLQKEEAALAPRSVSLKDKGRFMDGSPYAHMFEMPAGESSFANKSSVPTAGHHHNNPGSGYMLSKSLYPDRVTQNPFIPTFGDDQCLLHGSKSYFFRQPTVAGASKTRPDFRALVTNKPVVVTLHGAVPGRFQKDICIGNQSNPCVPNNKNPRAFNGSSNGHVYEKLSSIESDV
Test: 3H-Ro 25-6981 binding (displacement) on rat brain membranes
Conditions: displacement of 5 nM 3H-Ro 25-6981, rat whole brain (minus cerebellum and medulla oblongata) membranes, 2 hours at 4° C., Tris-HCl 50 mM pH 7.4
Experimental: ^3H-Ro 25-6981 binding (Ro 25-6981 is [R-(R*,S*)]-α-(4-hydroxy-phenyl)-β-methyl-4-(phenyl-methyl)-1-piperidine propanol)
Male Füllinsdorf albino rats weighing between 150-200 g were used. Membranes were prepared by homogenization of the whole brain minus cerebellum and medulla oblongata with a Polytron (10.000 rpm, 30 seconds), in 25 volumes of a cold Tris-HCl 50 mM, EDTA 10 mM, pH 7.1 buffer. The homogenate was centrifuged at 48,000 g for 10 minutes at 4° C. The pellet was resuspended using the Polytron in the same volume of buffer and the homogenate was incubated at 37° C. for 10 minutes. After centrifugation the pellet was homogenized in the same buffer and frozen at −80° C. for at least 16 hours but not more than 10 days. For the binding assay the homogenate was thawed at 37° C., centrifuged and the pellet was washed three times as above in a Tris-HCl 5 mM, pH 7.4 cold buffer. The final pellet was resuspended in the same buffer and used at a final concentration of […].
^3H-Ro 25-6981 binding experiments were performed using a Tris-HCl 50 mM, pH 7.4 buffer. For displacement experiments 5 nM of ^3H-Ro 25-6981 were used and non specific binding was measured using 10 mM of tetrahydroisoquinoline and usually it accounts for 10% of the total. The incubation time was 2 hours at 4° C. and the assay was stopped by filtration on Whatmann GF/B glass fiber filters (Unifilter-96, Packard, Zürich, Switzerland). The filters were washed 5 times with cold buffer. The radioactivity on the filter was counted on a Packard Top-coullt microplate scintillation counter after addition of […] of microscint 40 (Canberra Packard S.A., Zürich, Switzerland).
The effects of compounds were measured using a minimum of 8 concentrations and repeated at least once. The pooled normalized values were analyzed using a non-linear regression calculation program which provide IC50 with their relative upper and lower 95% confidence limits.

Row | IC50 [nM] | Compound
1 | 21 | Cc1nccn1Cc1cc(-c2ccc(F)c(Cl)c2)cnn1 [Example 1, 5-(3-Chloro-4-fluoro-phenyl)-3-(2-methyl-imidazol-1-yl-methyl)-pyridazine Hydrochloride]
2 | 38 | Cc1nccn1Cc1cc(-c2ccc(F)c(C(F)(F)F)c2)cnn1 [Example 3, 5-(4-Fluoro-3-trifluoromethyl-phenyl)-3-(2-methyl-imidazol-1-yl-methyl)-pyridazine hydrochloride]
3 | 27 | Cc1nccn1Cc1cc(-c2ccc(Cl)c(C(F)(F)F)c2)cnn1 [Example 4, 5-(4-Chloro-3-trifluoromethyl-phenyl)-3-(2-methyl-imidazol-1-yl-methyl)-pyridazine hydrochloride]
4 | 17 | Cc1nccn1Cc1cc(-c2ccc(F)c(C(F)F)c2)cnn1 [Example 6, 5-(3-Difluoromethyl-4-fluoro-phenyl)-3-(2-methyl-imidazol-1-yl-methyl)-pyridazine hydrochloride]
5 | 34 | Cc1nccn1Cc1cc(-c2cccc(C(C)(F)F)c2)cnn1 [Example 9, 5-[3-(1,1-Difluoro-ethyl)-phenyl]-3-(2-methyl-imidazol-1-yl-methyl)-pyridazine hydrochloride]
6 | 29 | Cc1nccn1Cc1cc(-c2ccc(F)c(C(C)(F)F)c2)cnn1 [Example 11, 5-[3-(1,1-Difluoro-ethyl)-4-fluoro-phenyl]-3-(2-methyl-imidazol-1-yl-methyl)-pyridazine hydrochloride]
7 | 22 | Cc1nccn1Cc1cc(-c2ccc3ccccc3c2)cnn1 [Example 12, 3-(2-Methyl-imidazol-1-ylmethyl)-5-naphthalen-2-yl-pyridazine-hydrochloride]
8 | 11 | Cc1nccn1Cc1cc(-c2ccc(Cl)c(Cl)c2)cnn1 [Example 13, 5-(3,4-Dichloro-phenyl)-3-(2-methyl-imidazol-1-yl-methyl)-pyridazine hydrochloride]
9 | 20 | Cc1nccn1Cc1cc(-c2cccc(C3CC3)c2)cnn1 [Example 14, 5-(3-Cyclopropyl-phenyl)-3-(2-methyl-imidazol-1-yl-methyl)-pyridazine hydrochloride]
10 | 16 | Cc1nccn1Cc1cc(-c2ccc3sccc3c2)cnn1 [Example 15, 5-Benzo[b]thiophen-5-yl-3-(2-methyl-imidazol-1-yl-methyl)-pyridazine hydrochloride]
11 | 10 | Cc1cc(-c2cnnc(Cn3ccnc3C)c2)ccc1F [Example 16, 5-(4-Fluoro-3-methyl-phenyl)-3-(2-methyl-imidazol-1-yl-methyl)-pyridazine hydrochloride]
12 | 47 | Cc1nccn1Cc1cc(-c2cc(F)cc(C(F)F)c2)cnn1 [Example 24, 5-(3-Difluoromethyl-5-fluoro-phenyl)-3-(2-methyl-imidazol-1-yl-methyl)-pyridazine hydrochloride]
13 | 58 | Cc1nccn1Cc1cc(-c2cccc(C(F)F)c2)cnn1 [Example 25, 5-(3-Difluoromethyl-phenyl)-3-(2-methyl-imidazol-1-yl-methyl)-pyridazine hydrochloride]
14 | 12 | Cc1nccn1Cc1cc(-c2ccc(Cl)c(C(F)F)c2)cnn1 [Example 26, 5-(4-Chloro-3-difluoromethyl-phenyl)-3-(2-methyl-imidazol-1-yl-methyl)-pyridazine hydrochloride]
15 | 44 | COc1ccc2cc(-c3cnnc(Cn4ccnc4C)c3)ccc2c1 [Example 27, 5-(6-Methoxy-naphthalen-2-yl)-3-(2-methyl-imidazol-1-yl-methyl)-pyridazine hydrochloride]
16 | 7 | Cc1cc(-c2cnnc(Cn3ccnc3C)c2)ccc1Cl [Example 30, 5-(4-Chloro-3-methyl-phenyl)-3-(2-methyl-imidazol-1-yl-methyl)-pyridazine hydrochloride]
17 | 31 | Cc1nccn1Cc1cc(-c2cc(F)cc(C(C)(F)F)c2)cnn1 [Example 31, 5-[3-(1,1-Difluoro-ethyl)-5-fluoro-phenyl]-3-(2-methyl-imidazol-1-yl-methyl)-pyridazine hydrochloride]
18 | 68 | Cc1nccn1Cc1cc(-c2cccc(C(C)(C)C)c2)cnn1 [Example 34, 5-(3-tert-Butyl-phenyl)-3-(2-methyl-imidazol-1-yl-methyl)-pyridazine hydrochloride]
19 | 25 | Cc1nccn1Cc1cc(-c2cccc3ccccc23)cnn1 [Example 35, 3-(2-Methyl-imidazol-1-yl-methyl)-5-naphthalen-1-yl-pyridazine hydrochloride]
20 | 77 | COc1cccc2c(-c3cnnc(Cn4ccnc4C)c3)cccc12 [Example 36, 5-(5-Methoxy-naphthalen-1-yl)-3-(2-methyl-imidazol-1-yl-methyl)-pyridazine hydrochloride]
21 | 54 | COc1cc(-c2cnnc(Cn3ccnc3C)c2)cc(C(F)(F)F)c1 [Example 38, 5-(3-Methoxy-5-trifluoromethyl-phenyl)-3-(2-methyl-imidazol-1-yl-methyl)-pyridazine hydrochloride]
22 | 24 | Cc1nccn1Cc1cc(-c2ccc(Cl)c(C(C)(F)F)c2)cnn1 [Example 39, 5-[4-Chloro-3-(1,1-difluoro-ethyl)-phenyl]-3-(2-methyl-imidazol-1-yl-methyl)-pyridazine hydrochloride]
23 | 41 | COc1cc(-c2cnnc(Cn3ccnc3C)c2)ccc1Cl [Example 41, 5-(4-Chloro-3-methoxy-phenyl)-3-(2-methyl-imidazol-1-yl-methyl)-pyridazine hydrochloride]
24 | 48 | Cc1nccn1Cc1cc(-c2cccc(C(C)C)c2)cnn1 [Example 42, 5-(3-Isopropyl-phenyl)-3-(2-methyl-imidazol-1-yl-methyl)-pyridazine hydrochloride]
25 | 57 | Cc1nccn1Cc1cc(-c2ccc3c4c(cccc24)CC3)cnn1 [Example 45, 5-Acenaphthen-5-yl-3-(2-methyl-imidazol-1-yl-methyl)-pyridazine hydrochloride]
26 | 35 | COc1ccc2ccc(-c3cnnc(Cn4ccnc4C)c3)cc2c1 [Example 48, 5-(7-Methoxy-naphthalen-2-yl)-3-(2-methyl-imidazol-1-yl-methyl)-pyridazine hydrochloride]
27 | 34 | COc1cc(-c2cnnc(Cn3ccnc3C)c2)c2ccccc2c1 [Example 49, 5-(3-Methoxy-naphthalen-1-yl)-3-(2-methyl-imidazol-1-yl-methyl)-pyridazine hydrochloride]
28 | 29 | Cc1nccn1Cc1cc(-c2ccc(F)c3ccccc23)cnn1 [Example 50, 5-(4-Fluoro-naphthalen-1-yl)-3-(2-methyl-imidazol-1-yl-methyl)-pyridazine hydrochloride]
29 | 37 | Cc1nccn1Cc1cc(-c2cccc(C(F)(F)F)c2F)cnn1 [Example 58, 5-(2-Fluoro-3-trifluoromethyl-phenyl)-3-(2-methyl-imidazol-1-yl-methyl)-pyridazine hydrochloride]
30 | 27 | Cc1nccn1Cc1cc(C2=Cc3ccccc3CC2)cnn1 [Example 68, 5-(3,4-Dihydro-naphthalen-2-yl)-3-(2-methyl-imidazol-1-yl-methyl)-pyridazine hydrochloride]

Row | Compound | IC50 [nM]
31 | 5-(3-Difluoromethyl-4-fluoro-phenyl)-3-(2-ethyl-imidazol-1-ylethyl)-pyridazine hydrochloride [Example 52] | 26
